# Test results as given in publication PMC7447632, “Highly functionalized β-lactams and 2-ketopiperazines as TRPM8 antagonists with antiallodynic activity” (Scientific Reports, 2020).
# Key:
# Type in all cases: cell-based
# [1] = system: HT29 (colorectal adenocarcinoma); experiment: SRB cytotoxicity assay, HT29; details: 72 h, SRB; for TGI HT29: total growth inhibition; for TGI HT29 / CC50: unit inferred; for GI50 / CC50: Homo sapiens, HT-29; for CC50: read-out: LC50 HT29
# Experimental: (§1) Human tumor cell lines used in this study were purchased from the ATCC. A-549 (CCL-185), lung carcinoma; HT-29 (HTB-38), colorectal adenocarcinoma; MDA-MB-231 (HTB-26), breast adenocarcinoma; PSN1, pancreas adenocarcinoma.
# (§2) All cell lines were maintained in DMEM (Dulbecco’s Modified Eagle's Medium) culture medium supplemented with 10% FBS (Fetal Bovine Serum), 100 Units/mL penicillin/streptomycin at 37 °C, 5% CO2 and 95% humidity.
# (§3) Triplicate cultures were incubated for 72 h in the presence or absence of test compounds in dose–response curves (10 concentrations, typically ranging from 10 to 0.0026 µg/mL). A colorimetric assay using sulforhodamine B (SRB) was adapted for quantitative measurement of cell growth and cytotoxicity. A more detailed information on this assay is provides in the supplementary information. GI50 is the compound concentration that produces 50% inhibition on cell growth as compared to control cells.
# (§4) In vitro bioassays for the detection of antitumor activity
# (§5) The aim of this assay is to evaluate the in vitro cytostatic (ability to delay or arrest tumor cell growth) or cytotoxic (ability to kill tumor cells) activity of the samples […]
# (§6) Name Nº ATCC Species Tissue Characteristics
# (§7) A549 CCL-185 human lung lung carcinoma (NSCLC)
# (§8) HT29 HTB-38 human colon colorectal adenocarcinoma
# (§9) MDA-MB-231 HTB-26 human breast breast adenocarcinoma
# (§10) PSN1 CRM-CRL-3211 human pancreas pancreas adenocarcinoma […]
# (§11) A colorimetric assay, using Sulforhodamine B (SRB) reaction has been adapted to provide a quantitative measurement of cell growth and viability (following the technique described by Skehan et al. J. Natl. Cancer Inst. 1990, 82, 1107-1112 […]
# (§12) This form of assay employs 96-well cell culture microplates following the standards of the American National Standards Institute and the Society for Laboratory […]
# (§13) used in this study were obtained from the American Type Culture Collection (ATCC) and derive from different types of human cancer.
# (§14) A549, HT29, MDA-MB-231 and PSN1 cells were maintained in Dulbecco’s
# (§15) Modified Eagle Medium (DMEM) supplemented with 10% Fetal Bovine Serum (FBS), 2mM L-glutamine, 100 U/mL penicillin, and 100 U/mL streptomycin at 37 °C, 5% CO2 and 98% humidity. For the experiments, cells were harvested from subconfluent cultures using trypsinization and resuspended in fresh medium before counting and […]
# (§16) A549, HT29, MDA-MB-231 and PSN1 cells were seeded in 96 well microtiter plates, at 5000 cells per well in aliquots of 150 µL, and allowed to attach to the plate surface for 18 hours (overnight) in drug free medium. After that, one control (untreated) plate of each cell line was fixed (as described below) and used for time zero reference value. Culture plates were then treated with test compounds (50 µL aliquots of 4X stock […]
# (§17) solutions in complete culture medium plus 4% DMSO) using ten 2/5 serial dilutions (concentrations ranging from 10 to 0.003 µg/mL) and triplicate cultures (1% final concentration in DMSO). After 72 hours treatment, the antitumor effect was measured by using the SRB methodology: Briefly, cells were washed twice with PBS, fixed for 15 min in 1% glutaraldehyde solution at room temperature, rinsed twice in PBS, and stained in 0.4% SRB solution for 30 min at room temperature. Cells were then rinsed several times with 1% acetic acid solution and air-dried at room temperature. SRB was then extracted in 10 mM trizma base solution and the absorbance measured in an automated spectrophotometric plate reader at 490 nm.
# (§18) Effects on cell growth and survival were estimated by applying the NCI algorithm (Boyd MR and Paull KD. Drug Dev. Res. 1995, 34, 91-109, DOI:10.1002/ddr.430340203). The values obtained in triplicate cultures were fitted by nonlinear regression to a four-parameters logistic curve by nonlinear regression analysis. . Using the absorbance measurements [time zero, (Tz), control growth, (C), and test growth in the presence of drug at the ten concentration levels (Ti)], the […]
# [2] = target: T1, hTRPV1 channels (Homo sapiens, UniProt Q8NER1); experiment: Ca2+ microfluorometry in HEK cells expressing hTRPV1 (capsaicin); details: 1 µM capsaicin; for TRPV1 Blockade (%) 5 µM: 5 µM compound; for TRPV1 Blockade (%) 50 µM: 50 µM compound
# T1 construct: expressed in transfected cells; host or cells: HEK (stably transfected)
# Experimental: β-Lactam and 2-ketopiperazine derivatives were also assayed for their activity in cell expressing hTRPV1 channels. No significant antagonist activity was measured for any derivatives within both chemotypes (Supplementary Tables S1, S2, and Fig. S3), indicating their selectivity for TRPM8 channels.
# Human embryonic kidney cell line (HEK) stably transfected with rTRPM8 or h-TRPV1 were used as previously described. Briefly, cells were seeded in 96-well plates at a cell density of 30,000 cells 2 days before treatment. Buffer used was HBBS (in mM): 138 NaCl, 5.33 KCl, 1.26 CaCl2, 0.5 MgCl-6H2O, 0.4 MgSO4-7H2O, 4 NaHCO3 0.44 KH2PO4, 0.3 Na2HPO4, pH 7.4. The day of treatment the medium was replaced with 100 µL of the dye loading solution Fluo-4 NW supplemented with probenecid 2.5 mM. After incubation, plates were transferred to a fluorescence plate reader (Polastar BMG). In the experimental protocol, the baseline fluorescence was recorded ([…]) for 3 cycles. After, vehicle, compound at different concentrations and the corresponding antagonist, 10 µM AMTB for TRPM8 or 10 µM Ruthenium Red for TRPV1 were added to the well. Fluorescence intensity was recorded during 7 cycles more. Finally, the agonist 100 µM menthol for TRPM8 or 1 µM capsaicin for TRPV1 was added and fluorescence intensity was recorded during 10 cycles more.
# Table S1. Activity at hTRPV1 of β–lactams derived from phenylalaninol conjugates
# Compd. Isomer Isomer TRPV1 Blockade (%)
# Table S2. Activity at hTRPV1 of 2-ketopiperazines derived from phenylalaninol
# [3] = system: 60 tumor cell screen; experiment: 60 tumor cell screen at the National Cancer Institute; details: 10 µM concentration
# Source text: A number of recent experimental evidences position TRPM channels as important players in cancer growth and progression. Among these channels, the aberrant expression of the TRPM8 subtype has been described in different human malignant tumors, including those of prostate, pancreas, breast, colon, and skin, among others. More importantly, sometimes the TRPM8 overexpression was associated to poor prognosis of cancer patients. […] Based on these precedents, in this work we first aimed at evaluating the antitumor activity of enantiopure compounds 24a and 29a. Initially, we assessed the growth inhibition percentage by a 10 µM concentration of these compounds on a 60 tumor cell screen at the National Cancer Institute (USA).
# [4] = system: PSN1 (pancreas adenocarcinoma); experiment: SRB cytotoxicity assay, PSN1; details: 72 h, SRB; for TGI PSN1: total growth inhibition; for TGI PSN1 / CC50: unit inferred; for GI50 / CC50: Homo sapiens, PSN1; for CC50: read-out: LC50 PSN1
# Experimental: as §1, §2, §3, §4, §5, §6, §7, §8, §9, §10, §11, §12, §13, §14, §15, §16, §17, §18
# [5] = system: MDA-MB-231 (breast adenocarcinoma); experiment: SRB cytotoxicity assay, MDA-MB-231; details: 72 h, SRB; for TGI MDA-MB-231: total growth inhibition; for TGI MDA-MB-231 / CC50: unit inferred; for GI50 / CC50: Homo sapiens, MDA-MB-231; for CC50: read-out: LC50 MDA-MB-231
# Experimental: as §1, §2, §3, §4, §5, §6, §7, §8, §9, §10, §11, §12, §13, §14, §15, §16, §17, §18
# [6] = system: A549 (lung carcinoma, NSCLC); experiment: SRB cytotoxicity assay, A549; details: 72 h, SRB; for TGI A549: total growth inhibition; for TGI A549 / CC50: unit inferred; for GI50 / CC50: Homo sapiens, A549; for CC50: read-out: LC50 A549
# Experimental: as §1, §2, §3, §4, §5, §6, §7, §8, §9, §10, §11, §12, §13, §14, §15, §16, §17, §18
# T1 sequence (Q8NER1 whole entry): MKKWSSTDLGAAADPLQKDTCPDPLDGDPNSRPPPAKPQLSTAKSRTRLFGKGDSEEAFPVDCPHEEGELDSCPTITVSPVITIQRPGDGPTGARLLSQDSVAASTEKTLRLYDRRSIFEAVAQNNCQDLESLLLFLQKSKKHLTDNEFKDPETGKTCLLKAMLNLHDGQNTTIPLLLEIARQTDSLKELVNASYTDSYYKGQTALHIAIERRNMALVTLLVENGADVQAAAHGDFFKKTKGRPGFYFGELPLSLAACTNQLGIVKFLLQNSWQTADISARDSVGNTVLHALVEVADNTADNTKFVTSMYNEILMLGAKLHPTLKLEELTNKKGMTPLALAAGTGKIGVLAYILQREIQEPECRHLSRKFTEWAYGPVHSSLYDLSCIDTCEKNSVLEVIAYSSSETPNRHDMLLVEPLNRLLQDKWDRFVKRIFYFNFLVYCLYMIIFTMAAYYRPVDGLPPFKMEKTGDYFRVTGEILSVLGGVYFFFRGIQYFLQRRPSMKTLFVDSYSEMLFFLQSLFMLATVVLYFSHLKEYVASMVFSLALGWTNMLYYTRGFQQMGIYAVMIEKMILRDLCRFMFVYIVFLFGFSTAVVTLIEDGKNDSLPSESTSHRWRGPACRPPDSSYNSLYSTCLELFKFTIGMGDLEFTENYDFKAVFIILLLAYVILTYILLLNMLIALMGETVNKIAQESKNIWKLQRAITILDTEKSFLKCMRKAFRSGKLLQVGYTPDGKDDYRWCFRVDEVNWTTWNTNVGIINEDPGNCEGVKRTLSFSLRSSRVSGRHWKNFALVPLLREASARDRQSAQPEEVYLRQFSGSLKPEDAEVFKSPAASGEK
TRPV1 Blockade (%) 5 µM [2] [%],TRPV1 Blockade (%) 50 µM [2] [%],Structure (SMILES),TGI HT29 [1] [µM],GI50 [1] [µM],CC50 [1] [µM],Growth inhibition in 60 tumor cell screen [3],TGI PSN1 [4] [µM],GI50 [4] [µM],CC50 [4] [µM],TGI MDA-MB-231 [5] [µM],GI50 [5] [µM],CC50 [5] [µM],TGI A549 [6] [µM],GI50 [6] [µM],CC50 [6] [µM]
9.7±1.1,11.8±3.2,"C[C@@H]1C(=O)N(C[C@H](Cc2ccccc2)NC(=O)OCc2ccccc2)[C@]1(Cc1ccccc1)C(=O)OCc1ccccc1 [Compound 24a, 4S-Benzyl-4-benzyloxycarbonyl-3S-methyl-1-[(2′S-benzyloxycarbonylamino-3′-phenyl)prop-1′-yl]-2-oxoazetidine]",> 17.3,4.16,> 17.3,"non-selective, modest cytotoxic effects",> 17.3,5.55,> 17.3,> 17.3,> 17.3,> 17.3,> 17.3,3.29,> 17.3
8.2±2.1,16.2±4.7,"C[C@@H]1C(=O)N(C[C@@H](Cc2ccccc2)NC(=O)OCc2ccccc2)[C@]1(Cc1ccccc1)C(=O)OCc1ccccc1 [Compound 29a, 4S-Benzyl-4-benzyloxycarbonyl-3S-methyl-1-[(2′R-benzyloxycarbonylamino-3′-phenyl)prop-1′-yl]-2-oxoazetidine]",> 17.3,7.11,> 17.3,"non-selective, modest cytotoxic effects",> 17.3,6.42,> 17.3,> 17.3,12.7,> 17.3,> 17.3,5.9,> 17.3
